Assay results from US20090143279A1 (priority 2007, published 2009).
Where two headings read alike, the source gives them in different places.

Legend:
mtOXPHOS transcripts = assay type: cell-based, mouse
reactive oxygen species = assay type: cell-based, mouse
[1] = tested on: cellular dehydrogenase activity
OXPHOS gene expression = assay type: cell-based, mouse
cytochrome c = assay type: cell-based, mouse
[2] = tested on: mitochondrial membrane potential; assay type: cell-based, mouse
nuOXPHOS transcripts = assay type: cell-based, mouse
[3] = composite Z-score vs DMSO, Conc 20 μM
[4] = composite Z-score vs mock-treated (DMSO) wells, concentration of each compound in μM
[5] = Conc 20 μM, normalized score vs mock-treated (DMSO) wells
[6] = normalized composite Z-score vs mock-treated (DMSO) wells, Conc 20 μM
[7] = 20 μM, composite Z-score vs DMSO
[8] = composite Z-score vs DMSO, Conc 8.66 μM
[9] = composite Z-score vs DMSO wells, Conc 20 μM

Chain of cytochrome c (P62897 whole entry): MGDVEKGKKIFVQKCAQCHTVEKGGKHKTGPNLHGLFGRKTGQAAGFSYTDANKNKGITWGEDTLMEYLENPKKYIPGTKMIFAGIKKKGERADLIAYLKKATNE

CCN1C[C@]2(COC)[C@H](O)C[C@H](OC)[C@@]34[C@@H]5C[C@@]6(O)[C@H](OC(=O)c7ccccc7)[C@@H]5[C@@](OC(C)=O)([C@@H]([C@H](OC)[C@H]23)[C@@H]14)[C@@H](O)[C@@H]6OC [aconitine]
mitoOX (mtOXPHOS transcripts; [3]): −0.198 | ROS (reactive oxygen species; [3]): 1.038 | MTT [1, 3]: −0.584 | GE-HTS (OXPHOS gene expression; [3]): 0.169 | cyt c (cytochrome c; [3]): 0.751 | cyt c (cytochrome c; [4]): 1.609 | ΔΨm [2, 3]: −0.073 | nucOX (nuOXPHOS transcripts; [3]): 0.356 | Viability (C2C12 myotubes; [3]): 0.132

colistin
mitoOX (mtOXPHOS transcripts; [4]): −0.939 | ROS (reactive oxygen species; [4]): 0.501 | MTT [1, 4]: −1.283 | GE-HTS (OXPHOS gene expression; [4]): −0.341 | cyt c (cytochrome c; [4]): 0.409 | ΔΨm [2, 4]: −0.746 | nucOX (nuOXPHOS transcripts; [4]): −0.016 | Viability (C2C12 myotubes; [4]): 0.940

COc1ccc2c(=O)ccoc2c1 [7-methoxychromone]
mitoOX (mtOXPHOS transcripts; [3]): −0.451 | ROS (reactive oxygen species; [3]): 0.919 | MTT [1, 3]: −0.963 | GE-HTS (OXPHOS gene expression; [3]): −0.759 | cyt c (cytochrome c; [3]): 0.511 | ΔΨm [2, 3]: −0.875 | nucOX (nuOXPHOS transcripts; [3]): −0.818 | Viability (C2C12 myotubes; [3]): −0.999

COP(=S)(OC)Oc1ccc([N+](=O)[O-])cc1 [methyl parathione]
mitoOX (mtOXPHOS transcripts): 0.450 | ROS (reactive oxygen species): 0.218 | MTT [1]: −0.341 | GE-HTS (OXPHOS gene expression): 0.500 | cyt c (cytochrome c): 0.414 | ΔΨm [2]: −0.353 | nucOX (nuOXPHOS transcripts): 0.500 | Viability (C2C12 myotubes): 1.967

CC(=O)O[C@H]1CC[C@]2(C)C(C[C@H](OC(C)=O)[C@]3(C)C4=CC(=O)OC(c5ccoc5)[C@@]4(C)CCC23)C1(C)C (stereo partly drawn)
mitoOX (composite Z-score) (mtOXPHOS transcripts; [5]): −0.653 | ROS (composite Z-score) (reactive oxygen species; [5]): 1.848 | MTT (composite Z-score) [1, 5]: −0.810 | GE-HTS (composite Z-score) (OXPHOS gene expression; [5]): −1.124 | cyt c (composite Z-score) (cytochrome c; [5]): 0.161 | ΔΨm (composite Z-score) [2, 5]: −0.208 | nucOX (composite Z-score) (nuOXPHOS transcripts; [5]): −1.228 | Viability (composite Z-score) (C2C12 myotubes; [5]): −0.292

CC1(O)/C=C\C=C(\CO)C2CC(C)(C)C2(O)CC1 (stereo not drawn) [punctaporin B]
mitoOX (mtOXPHOS transcripts; [6]): −0.555 | ROS (reactive oxygen species; [6]): 0.731 | MTT [1, 6]: −0.596 | GE-HTS (OXPHOS gene expression; [6]): −0.242 | cyt c (cytochrome c; [6]): 0.175 | ΔΨm [2, 6]: −0.174 | nucOX (nuOXPHOS transcripts; [6]): −0.049 | Viability (C2C12 myotubes; [6]): 0.554

Cc1cc(=O)[nH]c(=S)[nH]1 [methylthiouracil]
mitoOX (mtOXPHOS transcripts; [7]): −0.302 | ROS (reactive oxygen species; [7]): 0.815 | MTT [1, 7]: −0.633 | GE-HTS (OXPHOS gene expression; [7]): −0.029 | cyt c (cytochrome c; [7]): 0.846 | ΔΨm [2, 7]: −0.553 | nucOX (nuOXPHOS transcripts; [7]): 0.146 | Viability (C2C12 myotubes; [7]): −0.235

N=C(N)N.N=C(N)N.O=C(O)O [guanidine carbonate]
mitoOX (mtOXPHOS transcripts; [3]): −0.993 | ROS (reactive oxygen species; [3]): 0.401 | MTT [1, 3]: −0.683 | GE-HTS (OXPHOS gene expression; [3]): −1.142 | cyt c (cytochrome c; [3]): −1.206 | ΔΨm [2, 3]: −0.252 | nucOX (nuOXPHOS transcripts; [3]): −1.112 | Viability (C2C12 myotubes; [3]): −0.835

O=c1[nH]c2ccccc2n1C1CCN(CCCC(c2ccc(F)cc2)c2ccc(F)cc2)CC1 [pimozide]
mitoOX (mtOXPHOS transcripts; [8]): −0.648 | mitoOX (mtOXPHOS transcripts; [3]): 0.386 | ROS (reactive oxygen species; [8]): 2.196 | ROS (reactive oxygen species; [3]): 1.432 | MTT [1, 8]: −0.375 | MTT [1, 3]: −0.447 | GE-HTS (OXPHOS gene expression; [8]): −0.548 | GE-HTS (OXPHOS gene expression; [3]): 0.722 | cyt c (cytochrome c; [8]): −0.531 | cyt c (cytochrome c; [3]): −0.121 | ΔΨm [2, 8]: −0.170 | ΔΨm [2, 3]: −0.381 | nucOX (nuOXPHOS transcripts; [8]): −0.438 | nucOX (nuOXPHOS transcripts; [3]): 0.857 | Viability (C2C12 myotubes; [8]): 0.494 | Viability (C2C12 myotubes; [3]): 0.146

NCCCC(=O)O [gamma-aminobutyric acid]
mitoOX (mtOXPHOS transcripts; [9]): −0.693 | ROS (reactive oxygen species; [9]): 0.209 | MTT [1, 9]: −0.777 | GE-HTS (OXPHOS gene expression; [9]): −0.119 | cyt c (cytochrome c; [9]): −0.038 | ΔΨm [2, 9]: 0.550 | nucOX (nuOXPHOS transcripts; [9]): 0.212 | Viability (C2C12 myotubes; [9]): 1.043

Oc1cccc2cccnc12 [oxyquinoline]
mitoOX (mtOXPHOS transcripts): 0.435 | ROS (reactive oxygen species): 0.684 | MTT [1]: −0.815 | GE-HTS (OXPHOS gene expression): 0.534 | cyt c (cytochrome c): −0.121 | ΔΨm [2]: −0.867 | nucOX (nuOXPHOS transcripts): 0.526 | Viability (C2C12 myotubes): −1.140

C[C@]12CC[C@H](O)C[C@H]1CC[C@@H]1[C@@H]2[C@H](O)C[C@]2(C)[C@@H](C3=CC(=O)OC3)CC[C@]12O [sarmentogenin]
mitoOX (mtOXPHOS transcripts; [6]): 0.077 | ROS (reactive oxygen species; [6]): −0.151 | MTT [1, 6]: −0.191 | GE-HTS (OXPHOS gene expression; [6]): 0.508 | cyt c (cytochrome c; [6]): 0.614 | ΔΨm [2, 6]: −0.354 | nucOX (nuOXPHOS transcripts; [6]): 0.691 | Viability (C2C12 myotubes; [6]): 0.694
